# Laboratory results taken from article PMC8119466, “A screen of FDA-approved drugs identifies inhibitors of protein tyrosine phosphatase 4A3 (PTP4A3 or PRL-3)” (Scientific Reports, 2021).
# Where a name gives a salt, the structure may show the parent alone. Read-outs that look alike come from different tables or passages of the source.
# Tests used:
# Assay type in all cases: biochemical
# [1] = molecular target: T1, recombinant PRL-2 (Homo sapiens, UniProt Q12974); assay: In vitro phosphatase assay (DiFMUP hydrolysis), PRL-2;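 note: PRL-2 activity read as DiFMUP hydrolysis after 20 min at room temperature with drug, enzyme first pre-reduced at 4 °C for 20 min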
# T1 construct: 6xHis (N, cleaved yes); made in house; host or cells: E. coli One Shot BL21 Star
# T1 sequence (Q12974 1-167): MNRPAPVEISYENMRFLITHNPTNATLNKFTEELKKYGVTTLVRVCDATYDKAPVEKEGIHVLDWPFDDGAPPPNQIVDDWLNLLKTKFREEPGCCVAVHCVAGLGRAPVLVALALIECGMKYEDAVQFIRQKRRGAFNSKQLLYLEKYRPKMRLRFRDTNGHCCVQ
# [2] = molecular target: T2, recombinant PRL-1 (Homo sapiens, UniProt Q93096); assay: In vitro phosphatase assay (DiFMUP hydrolysis), PRL-1; note: test concentration or dose not given here
# T2 construct: 6xHis (N, cleaved yes); made in house; host or cells: E. coli One Shot BL21 Star
# T2 sequence (Q93096 1-173): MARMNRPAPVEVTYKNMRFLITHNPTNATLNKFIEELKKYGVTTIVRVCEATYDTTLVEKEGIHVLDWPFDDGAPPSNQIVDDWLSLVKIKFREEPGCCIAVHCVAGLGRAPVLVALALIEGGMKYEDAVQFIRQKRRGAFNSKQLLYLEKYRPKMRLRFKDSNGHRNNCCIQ
# [3] = molecular target: T3, recombinant PRL-3 (Homo sapiens, UniProt O75365); assay: In vitro phosphatase assay (DiFMUP hydrolysis), PRL-3; note: test concentration or dose not given here
# T3 construct: 6xHis (N, cleaved yes); made in house; host or cells: E. coli One Shot BL21 Star
# [4] = FDA-approved drug screen, compared to DMSO
# [5] = FDA-approved drug screen, activity compared to DMSO
# T3 sequence (O75365 whole entry): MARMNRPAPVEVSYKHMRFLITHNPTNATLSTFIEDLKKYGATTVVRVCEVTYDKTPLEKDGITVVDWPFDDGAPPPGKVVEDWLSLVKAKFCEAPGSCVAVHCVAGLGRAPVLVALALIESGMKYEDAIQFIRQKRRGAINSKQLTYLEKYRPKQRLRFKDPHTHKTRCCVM
SMILES,"% Phosphatase Activity (compared to DMSO) PRL-2 [1, 4] [%]","% Phosphatase Activity (compared to DMSO) PRL-1 [2, 4] [%]","% Phosphatase Activity (compared to DMSO) PRL-3 [3, 4] [%]",further results
N[C@@H](CCC(=O)N[C@@H](CS)C(=O)NCC(=O)O)C(=O)O [Glutathione],,,,% Phosphatase Activity (compared to DMSO) PRL-2 [1]: 87%; % Phosphatase Activity (compared to DMSO) PRL-1 [2]: 93%; % Phosphatase Activity (compared to DMSO) PRL-3 [3]: 112%
O=C(O)CCCc1ccc(N(CCCl)CCCl)cc1 [Chloroambucil],103,98,77,
Br.COc1ccc2c(c1)[C@]13CCCC[C@@H]1[C@H](C2)N(C)CC3.O [Dextromethorphan (hydrobromide hydrate)],118,104,92,
O[C@H]1[C@H](O)[C@@H](O)[C@H](O)[C@@H](O)[C@H]1O [i-Inositol],112,94,87,
CC(C)(C(=O)O)c1ccc(C(O)CCCN2CCC(C(O)(c3ccccc3)c3ccccc3)CC2)cc1 (stereo not drawn) [Fexofenadine HCl],,,,% Phosphatase Activity (compared to DMSO) PRL-2 [1]: 92%; % Phosphatase Activity (compared to DMSO) PRL-1 [2]: 109%; % Phosphatase Activity (compared to DMSO) PRL-3 [3]: 89%
CCCCc1ncc(/C=C(\Cc2cccs2)C(=O)O)n1Cc1ccc(C(=O)O)cc1 [Eprosartan Mesylate],100,89,72,
CN1C(CCl)Nc2cc(Cl)c(S(N)(=O)=O)cc2S1(=O)=O (stereo not drawn) [Methyclothiazide],114,100,62,
N#Cc1ccccc1-c1cc(-c2ccccn2)cn(-c2ccccc2)c1=O [Perampanel],376,488,451,
O=C(NC(Cc1cc(=O)[nH]c2ccccc12)C(=O)O)c1ccc(Cl)cc1 (stereo not drawn) [Rebamipide],93,88,92,
Cl.N=C(N)N [Guanidine HCl],108,103,86,
Clc1ccc(C(Cn2ccnc2)OCc2ccc(Sc3ccccc3)cc2)c(Cl)c1 (stereo not drawn) [Fenticonazole Nitrate],117,107,110,
C#C[C@]1(O)CC[C@H]2[C@@H]3CCc4cc(O)ccc4[C@H]3CC[C@@]21C [Ethinyl Estradiol],99,99,75,
CC(=O)O[C@@]12CO[C@@H]1C[C@H](O)[C@@]1(C)C(=O)[C@H](O)C3=C(C)[C@@H](OC(=O)[C@H](O)[C@@H](NC(=O)OC(C)(C)C)c4ccccc4)C[C@@](O)([C@@H](OC(=O)c4ccccc4)[C@H]21)C3(C)C [Docetaxel],88,87,65,
OC[C@@H](O)[C@@H](O)[C@H](O)[C@H](O)CO [D-Mannitol],101,93,104,
Cc1ccc(C(=O)N(CCCN)[C@@H](c2nc3cc(Cl)ccc3c(=O)n2Cc2ccccc2)C(C)C)cc1 [Ispinesib (SB-715992)],108,103,80,
O=C(O)CSCC(=O)NC1CCSC1=O (stereo not drawn) [Erdosteine],89,93,95,
COc1cc(C(=O)NS(=O)(=O)c2ccccc2C)ccc1Cc1cn(C)c2ccc(NC(=O)OC3CCCC3)cc12 [Zafirlukast],,,,"% Phosphatase Activity (compared to DMSO) PRL-2 [1, 5]: 66%; % Phosphatase Activity (compared to DMSO) PRL-1 [2, 5]: 68%; % Phosphatase Activity (compared to DMSO) PRL-3 [3, 5]: 48%"

SMILES,"% Phosphatase Activity (compared to DMSO) PRL-2 [1, 4] [%]","% Phosphatase Activity (compared to DMSO) PRL-1 [2, 4] [%]","% Phosphatase Activity (compared to DMSO) PRL-3 [3, 4] [%]",further results
CC(C)(C)CC(C)(C)c1ccc(O)c(Cc2ccc(Cl)cc2Cl)c1 [Clofoctol],87,91,83,
CC(COc1ccccc1)N(CCCl)Cc1ccccc1 (stereo not drawn) [Phenoxybenzamine HCl],112,106,81,
O=C(O)Cc1ccccc1Nc1c(Cl)cccc1Cl [Diclofenac Diethylamine],140,119,97,
CC(=O)OCC1=C(C(=O)O)N2C(=O)[C@@H](NC(=O)Cc3cccs3)[C@H]2SC1 [Cephalothin],91,97,82,
CN[C@@H]1[C@H](O)[C@H](NC)[C@H]2O[C@@]3(O)C(=O)C[C@@H](C)O[C@H]3O[C@@H]2[C@H]1O.Cl.Cl [Spectinomycin HCl],,,,"% Phosphatase Activity (compared to DMSO) PRL-2 [1, 5]: 110%; % Phosphatase Activity (compared to DMSO) PRL-1 [2, 5]: 109%; % Phosphatase Activity (compared to DMSO) PRL-3 [3, 5]: 77%"
C[N+]1(C)CCC(OC(=O)C(O)(c2ccccc2)C2CCCC2)C1 (stereo not drawn) [Glycopyrrolate],101,108,82,
NS(=O)(=O)c1ccc(C(=O)O)cc1 [Carzenide],98,105,89,
NS(=O)(=O)c1cc2c(cc1Cl)N=CNS2(=O)=O [Chlorothiazide],80,105,76,
CC(C)[C@H]1C(=O)N[C@@H](CCCN=C(N)N)C(=O)NCC(=O)N[C@@H](CC(=O)O)C(=O)N[C@H](Cc2ccccc2)C(=O)N1C [Cilengitide],91,100,96,
CC(C)C(=O)OCC(=O)[C@@]12O[C@H](C3CCCCC3)O[C@@H]1C[C@H]1[C@@H]3CCC4=CC(=O)C=C[C@]4(C)[C@H]3[C@@H](O)C[C@@]12C [Ciclesonide],108,100,88,
Cc1cccc(C)c1NC(=O)CN1CCCC1=O [Nefiracetam],95,94,88,
NC[C@H]1O[C@H](O[C@H]2[C@H](O)[C@@H](O[C@H]3O[C@H](CO)[C@@H](O)[C@H](N)[C@H]3O)[C@H](N)C[C@@H]2N)[C@H](N)C[C@@H]1O [Tobramycin],,,,"% Phosphatase Activity (compared to DMSO) PRL-2 [1, 5]: 97%; % Phosphatase Activity (compared to DMSO) PRL-1 [2, 5]: 99%; % Phosphatase Activity (compared to DMSO) PRL-3 [3, 5]: 91%"
COC(=O)C1=C(C)NC(C)=C(C(=O)OC(C)C)C1c1cccc2nonc12 (stereo not drawn) [Isradipine],74,94,71,
OCCN1C[C@H](O)[C@@H](O)[C@H](O)[C@H]1CO [Miglitol],120,114,88,
O=C(CCNNC(=O)c1ccncc1)NCc1ccccc1 [Nialamide],100,95,96,
Nc1nc2c(ncn2CCC(CO)CO)c(=O)[nH]1 [Penciclovir],95,98,74,
